{"source": "patent US10350272B2", "about": "“Calcitonin analogues for treating diseases and disorders” (KeyBioscience AG, priority 2015, dated 2019)", "type_in_all_cases": "in vivo, rat", "key": {"[1]": {"tested_on": "liver sections from HFD-fed rats", "test": "Oil-Red-O staining of frozen liver sections", "details": "HFD rats, 2.5 μg/kg daily", "procedure": "At termination of the study of Example 2 the rat livers were embedded using snap freezing in OCT, and then sectioned using a cryomicrotome. Sections were prepared from four groups, KBP-042 in HFD rats, KBP-089 in HFD rats, control HFD rats, and a lean rat comparison.\nThe sections were stained using Oil-Red-O staining. […] The lipid accumulation in pair-fed KBP-089 liver exceeded KBP-089 treated rats with 66.5% (p<0.001) and was not significant different from vehicle (0.6711). Statistical test performed was one-way ANOVA with Dunnet's post test for multiple comparisons. **p<0.01, ***p<0.001."}, "HFD rats": {"tested_on": "HFD rats", "test": "Oral glucose tolerance test (OGTT)", "description": "Animals were challenged with an oral glucose bolus (2 g/kg) at time=0, and dosed with either KBP-042 or saline at t=−30. FIGS. 12A, 12B and 12C show blood glucose levels during acute OGTT, OGTT after 3 weeks, and OGTT after 7 weeks respectively. FIGS. 12D, 12E and 12F show the area under the curve for acute OGTT, OGTT after 3 weeks, and OGTT after 7 weeks respectively. FIGS. 12G, 12H and 12I show insulin levels during acute OGTT, OGTT after 3 weeks, and OGTT after 7 weeks respectively. FIGS. 12J, 12K and 12L show insulin levels during acute OGTT, OGTT after 3 weeks, and OGTT after 7 weeks respectively expressed as area under the curve. n=10 for all groups except vehicle (n=12). Statistical analysis between groups were performed as a One-way ANOVA followed by Tukey's post-hoc test with the following annotations: *P<0.05, **P<0.01, ***P<0.001 vs. HFD-Vehicle. ††P<0.01, †††P<0.001 vs. Pair-fed 5 μg/kg. ‡‡P<0.01, ‡‡‡P<0.001 vs. Pair-fed 10 μg/kg, Data are expressed as mean±SEM."}, "[2]": {"tested_on": "insulin resistant HFD rats", "test": "Hyperinsulinemic-euglycemic clamp (glucose infusion rate)", "procedure": "As liver fat is known to decrease insulin sensitivity, the effect of KBP-042 on insulin sensitivity was considered using the glucose infusion rate (GIR) in the hyperinsulinemic-euglycemic clamp. For this study ND rats were compared to insulin resistant HFD rats and 5 μg/kg KBP-042 treated HFD rats.\nThe results are shown in FIG. 13: A) Glucose infusion rate (GIR) at steady state during hyperinsulinemic-euglycemic clamp when blood glucose was clamped at basal levels after 21 days treatment; B) Body weight at hyperinsulinemic-euglycemic clamp experiment day after 21 days of treatment. Statistical analysis between groups was performed as a One-way ANOVA followed by Tukey's post-hoc test with the following annotations: *P<0.05, **P<0.01, ***P<0.001. Data are expressed as mean±SEM."}}}
{"substance": "AcCSNLSTCVLGKLSQELHKLQTYPRTDVGANAP-NH2 (Ac-CSNLSTCVLGKLSQELHKLQTYPRTDVGANAP-NH2; not fully specified (bridges); cysteine pairing not given here) [KBP-042, calcitonin mimetic with Cys1-Cys7 disulphide bridge]", "values": [{"measurement": "decrease of HFD-induced lipid accumulation in liver compared to vehicle (Oil-Red-O)", "setting": "[1]", "result": 78.3, "unit": "%"}, {"measurement": "blood glucose", "setting": "HFD rats; 30 minutes after subcutaneous administration (t=0), acute", "result": "hyperglycemic effect"}, {"measurement": "glucose tAUC", "setting": "HFD rats; OGTT after 3 weeks, 2.5 μg/kg, 5 μg/kg and 10 μg/kg", "result": "significantly lowered"}, {"measurement": "glucose tolerance (tAUC)", "setting": "HFD rats; OGTT at week 7, 5 μg/kg and 10 μg/kg", "result": "improved glucose tolerance"}, {"measurement": "glucose total area under the curve (tAUC)", "setting": "HFD rats; acute OGTT, 10 μg/kg", "result": "significantly increased"}, {"measurement": "glucose tolerance in OGTT", "setting": "HFD rats; acute dose, 10 μg/kg, compared to HFD-Vehicle", "result": "slightly impaired glucose tolerance"}, {"measurement": "insulin levels during OGTT", "setting": "HFD rats; acute, first 60 minutes after glucose administration", "result": "reduced"}, {"measurement": "insulin levels during OGTT", "setting": "HFD rats; after 3 weeks, all treatment groups except 0.625 μg/kg", "result": "lowered"}, {"measurement": "insulin levels during OGTT", "setting": "HFD rats; week 7, three highest dose groups, first 60 minutes after glucose administration", "result": "drastically reduced"}, {"measurement": "body weight reduction", "setting": "[2]; 5 μg/kg, 21 days, HFD rats", "result": "~18", "unit": "%"}, {"measurement": "increase in glucose infusion rate (GIR) compared to HFD-Vehicle", "setting": "[2]; 5 μg/kg, 21 days, p<0.001", "result": 82, "unit": "%"}, {"measurement": "increase in GIR compared to ND", "setting": "[2]; 5 μg/kg, 21 days, p<0.05", "result": 27, "unit": "%"}, {"measurement": "body weight compared to ND rats", "setting": "[2]; 5 μg/kg, end of study (21 days)", "result": "not significantly different"}, {"measurement": "whole-body insulin sensitivity", "setting": "[2]; hyperinsulinemic-euglycemic clamp", "result": "improved"}]}
